Holding throughout (format): cell-based
The target in assay [1] is T1, APOL1 G2 (Homo sapiens, UniProt O14791, DEL388-389).
T1 construct: expressed in transfected cells; host or cells: HEK293 T-REx clonal line stably expressing GCaMP6f (HEK T-REx/GCaMP6f/APOL1 G2 K6.3), doxycycline induced
T1 sequence (O14791 with tags, fused parts or gaps DEL388-389): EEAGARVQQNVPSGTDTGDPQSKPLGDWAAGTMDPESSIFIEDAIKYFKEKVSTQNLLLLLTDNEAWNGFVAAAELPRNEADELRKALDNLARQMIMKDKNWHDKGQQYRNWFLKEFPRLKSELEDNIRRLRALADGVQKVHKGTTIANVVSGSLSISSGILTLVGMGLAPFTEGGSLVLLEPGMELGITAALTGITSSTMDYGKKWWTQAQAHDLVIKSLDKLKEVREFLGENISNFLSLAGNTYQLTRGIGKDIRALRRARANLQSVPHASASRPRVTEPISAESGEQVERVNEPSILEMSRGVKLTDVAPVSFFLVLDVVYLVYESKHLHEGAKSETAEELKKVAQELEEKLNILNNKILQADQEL
As to the kind of experiment: APOL1-mediated calcium transport (calcium influx) assay, HEK T-REx/GCaMP6f/APOL1 G2 K6.3 cells, FLIPR TETRA. The following applies: prevention of calcium influx; geometric mean of at least 2 assay runs; † = average of a technical replicate from a single assay run. An outline of the steps: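 A HEK293 T-REx clone stably expressing GCaMP6f had APOL1 G2 induced with doxycycline (20 ng/mL solution added) for 6 h. Cells were then washed into Ca2+-free Tyrode's buffer (pH 7.4) and preincubated with compounds (duplicate 8-point) for 10 min at room temperature. Ca2+ injection to 5 mM final produced FLIPR GCaMP fluorescence, giving AC50 for influx inhibition (geometric mean, ≥2 runs).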

Assay [2] relates to HEK293 clonal cell line overexpressing APOL1 G1. As to the kind of experiment: APOL1 G1 HEK293 cell rescue assay (Example B3). The following applies: geometric mean of at least 2 runs, † = single run, ¥ = concentration at 50% rescue estimated (no sigmoidal curve). An outline of the steps:
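HEK293 clonal line overexpressing APOL1 G1; EC50 is half-maximal reversal of APOL1-induced cell death. Values are the geometric mean of ≥2 runs on separate days, each run the average of duplicate wells. Where no sigmoidal curve could be fitted, the concentration giving 50% rescue was estimated.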

Assay [3] deals with HEK293 cells overexpressing APOL1 G2. As to the kind of experiment: APOL1 G2 HEK293 cell rescue assay (reversal of cell death caused by overexpression of APOL1). The following applies: geometric mean of at least 2 assay runs, † = single assay run. An outline of the steps:
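EC50 is the half-maximal effective concentration for reversing cell death driven by APOL1 G2 overexpression in HEK293 cells. Reported as geometric mean of at least 2 runs on separate days, each run averaging duplicate wells per plate; some values from a single run.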

Where [4] appears, read: Homo sapiens, HEK293, HEK293 clonal line overexpressing APOL1 G1.
Where [5] appears, read: Homo sapiens, HEK293, HEK293 overexpressing APOL1 G2.
[6] abbreviates: HEK293 clonal line overexpressing APOL1 G1.

As to `N#Cc1ccc2c(c1)C1(CCN(CCOc3ccc4c(c3)CCN3C(=O)NCC43)CC1)C(=O)N2` (single isomer, unassigned) [Compound 119, (S) or (R)-2-oxo-1′-[2-({3-oxo-1H,2H,3H,5H,6H,10bH-imidazo[4,3-a]isoquinolin-8-yl}oxy)ethyl]-1,2-dihydrospiro[indole-3,4′-piperidine]-5-carbonitrile], in assay [1], the AC50 (as a rule, the concentration at which the activity in the assay is half-maximal) stood at 1010 nM. In addition, the concentration giving a half-maximal response (EC50) (usually the concentration that produces a half-maximal response) in assay [2] (setting [4]) was around 3400 nM; in assay [3] (setting [5]), 435 nM.
In the same order, the values of `CC(COc1ccc(S(C)(=O)=O)cc1)N1CCC2(CC1)C(=O)N(C1CC(O)C1)c1ccc(Cl)cc12` (mixture of isomers) [Compound 205, 5-chloro-1′-[1-(4-methanesulfonylphenoxy)propan-2-yl]-1-[3-hydroxycyclobutyl]-1,2-dihydrospiro[indole-3,4′-piperidin]-2-one] are 1220 nM, 1760 nM and 472 nM.
With `C[C@@H](COc1cc(F)c(S(C)(=O)=O)c(F)c1)N1CCC2(CC1)C(=O)Nc1ccc(C#N)cc12` (single isomer, unassigned) [Compound 213], the half-maximal activity concentration (AC50) in assay [1] is 1120 nM. Moreover, the results for the EC50 in assay [2] (setting [4]) and in assay [3] (setting [5]) were 497 nM and 189 nM, respectively.
In the case of `CC(COc1ccc(S(C)(=O)=O)cc1)N1CCC2(CC1)C(=O)N(C1CC(O)C1)c1ccc(Cl)cc12` (single isomer, unassigned) [Compound 209, 5-chloro-1′-[(2R) or (2S)-1-(4-methanesulfonylphenoxy)propan-2-yl]-1-[(trans) or (cis)-3-hydroxycyclobutyl]-1,2-dihydrospiro[indole-3,4′-piperidin]-2-one], the AC50 in assay [1] is 1240 nM. Moreover, the EC50 was above 2840 nM in assay [2] (setting [6]) and 3070 nM in assay [3] (HEK293 overexpressing APOL1 G2).
As for `COCCN1C(=O)C2(CCN(CCOc3ccc(S(C)(=O)=O)cc3)CC2)c2ccccc21` [Compound 21, 1′-[2-(4-methanesulfonylphenoxy)ethyl]-1-(2-methoxyethyl)-1,2-dihydrospiro[indole-3,4′-piperidin]-2-one], in assay [1], the AC50 is below 213 nM. Further, the EC50 in assay [2] (setting [4]) is above 14400 nM; in assay [3] (setting [5]) it was 1270 nM.
In the same order, the values of `[2H]C([2H])([2H])N1C(=O)C2(CCN(CCOc3ccc(S(C)(=O)=O)cc3)CC2)c2cc(Cl)ccc21` [Compound 418] are 309 nM, 215 nM and 78.5 nM.
In the same order, the values of `CC(c1ccc(OCCN2CCC3(CC2)C(=O)Nc2ccc(C#N)cc23)cc1)S(C)(=O)=O` (stereo not drawn) [Compound 133, 1′-{2-[4-(1-methanesulfonylethyl)phenoxy]ethyl}-2-oxo-1,2-dihydrospiro[indole-3,4′-piperidine]-5-carbonitrile] are 671 nM, 885 nM and 203 nM.
As for `CS(=O)(=O)c1ccc(OCCN2CCC3(CC2)C(=O)Nc2c(Cl)cc(Cl)cc23)cc1` [Compound 7, 5,7-dichloro-1′-[2-(4-methanesulfonylphenoxy)ethyl]-1,2-dihydrospiro[indole-3,4′-piperidin]-2-one], the AC50 in assay [1] stood at 601 nM. Moreover, the EC50 in assay [2] (setting [4]) was 764 nM; in assay [3] (setting [5]), 279 nM.
In the same order, the values of `[2H]C([2H])([2H])N1C(=O)C2(CCN(CCOc3ccc4c(c3)CN(C)C4=O)CC2)c2cc(Cl)ccc21` [Compound 416, 5-chloro-1-(^2H3)methyl-1′-{2-[(2-methyl-1-oxo-2,3-dihydro-1H-isoindol-5-yl)oxy]ethyl}-1,2-dihydrospiro[indole-3,4′-piperidin]-2-one] are 449 nM, 382 nM and 169 nM.
The matching figures for `C[C@]1(O)C[C@@H](n2cnc3cc(OCCN4CCC5(CC4)C(=O)Nc4ccc(C#N)cc45)cc(C(F)F)c32)C1` [Compound 446, 1′-(2-{[7-(difluoromethyl)-1-[(cis)-3-hydroxy-3-methylcyclobutyl]-1H-1,3-benzodiazol-5-yl]oxy}ethyl)-2-oxo-1,2-dihydrospiro[indole-3,4′-piperidine]-5-carbonitrile]: 1180 nM, 82.5 nM and 33.2 nM.
With `Cc1nc2cc(OCCN3CCC4(CC3)C(=O)Nc3ccc(Cl)cc34)cnc2n1[C@H]1C[C@@](C)(O)C1` [Compound 451, 5-chloro-1′-[2-({2-methyl-3-[(cis)-3-hydroxy-3-methylcyclobutyl]-3H-imidazo[4,5-b]pyridin-6-yl}oxy)ethyl]-1,2-dihydrospiro[indole-3,4′-piperidin]-2-one], the AC50 in assay [1] is 459 nM. For the same molecule, the figures for the EC50 in assay [2] (setting [4]) and in assay [3] (setting [5]) were 115 nM and 32.1 nM, respectively.
In the same order, the values of `CS(=O)(=O)Nc1ccc(OCCN2CCC3(CC2)C(=O)N(CCO)c2ccc(Cl)cc23)cc1C(F)(F)F` [Compound 186, N-(4-{2-[5-chloro-1-(2-hydroxyethyl)-2-oxo-1,2-dihydrospiro[indole-3,4′-piperidin]-1′-yl]ethoxy}-2-(trifluoromethyl)phenyl)methanesulfonamide] are 524 nM, 98.8 nM and 35.9 nM.
The matching figures for `[2H]C([2H])([2H])N1C(=O)C2(CCN(CCOc3cnc(C4(CO)CC4)nc3)CC2)c2cc(Cl)ccc21` [Compound 420, 5-chloro-1′-[2-({2-[1-(hydroxymethyl)cyclopropyl]pyrimidin-5-yl}oxy)ethyl]-1-(^2H3)methyl-1,2-dihydrospiro[indole-3,4′-piperidin]-2-one]: 892 nM, 144 nM and 64.7 nM.
`CC(COc1ccc2c(c1)CCC(=O)N2C)N1CCC2(CC1)C(=O)Nc1ccc(C#N)cc12` (single isomer, unassigned) [Compound 204, (R) or (S)-1′-{1-[(1-methyl-2-oxo-1,2,3,4-tetrahydroquinolin-6-yl)oxy]propan-2-yl}-2-oxo-1,2-dihydrospiro[indole-3,4′-piperidine]-5-carbonitrile]: the AC50 in assay [1] turned out to be 869 nM. For the same molecule, the EC50 in assay [2] (setting [6]) was 1270 nM; in assay [3] (HEK293 overexpressing APOL1 G2) it was 1550 nM.
For `CN1C(=O)C2(CCN(CCOc3ccc(N4CCCC4=O)cc3)CC2)c2ccccc21` [Compound 37, 1-methyl-1′-{2-[4-(2-oxopyrrolidin-1-yl)phenoxy]ethyl}-1,2-dihydrospiro[indole-3,4′-piperidin]-2-one], in assay [1], the AC50 was determined as 327 nM. For the same molecule, the values for the EC50 in assay [2] (setting [4]) and in assay [3] (setting [5]) were 692 nM and 1280 nM, respectively.
Turning to `CS(=O)(=O)N1Cc2ccc(OCCN3CCC4(CC3)C(=O)Nc3ccc(Cl)cc34)cc2C1` [Compound 54, 5-chloro-1′-{2-[(2-methanesulfonyl-2,3-dihydro-1H-isoindol-5-yl)oxy]ethyl}-1,2-dihydrospiro[indole-3,4′-piperidin]-2-one], in assay [1], the AC50 is 804 nM. For the same molecule, the figures for the concentration giving a half-maximal response (EC50) in assay [2] (setting [4]) and in assay [3] (setting [5]) were 386 nM and 90.3 nM, respectively.
In the case of `C[C@]1(O)C[C@@H](n2ncc3cc(OCCN4CCC5(CC4)C(=O)Nc4ccc(C#N)cc45)cnc32)C1` (single isomer, unassigned) [Compound 437, 2-oxo-1′-[2-({1-[(cis)-3-hydroxy-3-methylcyclobutyl]-1H-pyrazolo[3,4-b]pyridin-5-yl}oxy)ethyl]-1,2-dihydrospiro[indole-3,4′-piperidine]-5-carbonitrile], the concentration at half-maximal activity (AC50) in assay [1] is 612 nM. In addition, the EC50 in assay [2] (setting [4]) is 186 nM; in assay [3] (setting [5]) it was 112 nM.
With `O=C1NCC2c3ccc(OCCN4CCC5(CC4)C(=O)Nc4ccc(Cl)cc45)cc3CCN12` (stereo not drawn) [Compound 115, 5-chloro-1′-[2-({3-oxo-1H,2H,3H,5H,6H,10bH-imidazo[4,3-a]isoquinolin-8-yl}oxy)ethyl]-1,2-dihydrospiro[indole-3,4′-piperidin]-2-one], the AC50 in assay [1] stood at 472 nM. For the same molecule, the EC50 was 199 nM in assay [2] (setting [4]) and 94.9 nM in assay [3] (setting [5]).
In the case of `CS(=O)(=O)c1ccc(OCCN2CCC3(CC2)C(=O)Nc2ccc(C#N)cc23)cc1F` [Compound 74, 1′-[2-(3-fluoro-4-methanesulfonylphenoxy)ethyl]-2-oxo-1,2-dihydrospiro[indole-3,4′-piperidine]-5-carbonitrile], the half-maximal activity concentration (AC50) in assay [1] came to 781 nM. The results for the EC50 in assay [2] (setting [4]) and in assay [3] (setting [5]) were 471 nM and 167 nM, respectively.

These data come from patent US12344610B2, “APOL1 inhibitors and methods of use” (Maze Therapeutics, Inc., priority 2022, dated 2025).
